Measured values taken from publication PMC9570490, “Novel Morpholine-Bearing Quinoline Derivatives as Potential Cholinesterase Inhibitors: The Influence of Amine, Carbon Linkers and Phenylamino Groups” (International Journal of Molecular Sciences, 2022).
Converted amounts (≈) assume the structure as drawn.

Assays:
[1] = molecular target: T1, BChE (EC 3.1.1.8, from horse serum) (Equus caballus, UniProt P81908); assay: biochemical; conditions: means ± SD, at least three independents
T1 construct: BChE (EC 3.1.1.8, from horse serum); purchased Sigma-Aldrich; host or cells: horse serum
Protocol: (§1) AChE and BChE inhibitory activities of compounds were determined by using a modified Ellman’s method. AChE (EC 3.1.1.7, from electric eel), BChE (EC 3.1.1.8, from horse serum), 5,5′-dithiobis(2nitrobenzoic acid) (DTNB), acetylthiocholine iodide (ATCI) and butyrylthiocholine iodide (BTCI) were purchased from Sigma-Aldrich. The reaction mixture contained 140 μL of 100 mM sodium phosphate buffer (pH 8.0), the enzyme solution (either 0.05 U/mL of AChE, 20 μL; or 0.05 U/mL of BChE, 20 μL), and test compound (20 μL). Assayed solutions of test compounds were pre-incubated with corresponding ChE at 25 °C for 15 min. The reaction was initiated by the addition of 10 μL of 10 mM DTNB and 10 μL of 7.5 mM substrate (ATCI or BTCI). The activity was determined by measuring the increase in absorbance at 412 nm at 37 °C in 10 min intervals using a microplate reader. The percentage of inhibition was calculated from the measured data as follows: (Ac − Ai)/Ac × 100%, where Ai and Ac represent the change in the absorbance in the presence of inhibitor and without inhibitor, respectively.

[2] = molecular target: T2, AChE (EC 3.1.1.7, from electric eel) (Electrophorus electricus, UniProt O42275); assay: biochemical; conditions: for IC50: means ± SD, at least three independents
T2 construct: purchased Sigma-Aldrich
Protocol: as §1

[3] = ABTS radical-scavenging assay
Protocol: ABTS radical-scavenging activity was measured by using the modified method. The test compound was dissolved in ethanol as 1.0 mg/mL, 0.5 mg/mL, 0.25 mg/mL, 0.125 mg/mL, 0.0625 mg/mL, and 0.03125 mg/mL. Similarly, the ethanol solution of Trolox with the same concentration gradient was prepared as a positive control. ABTS solution at a concentration of 7 mM and potassium persulfate solution at a concentration of 2.45 mM with distilled water were also prepared. The ABTS solution and the potassium persulfate solution were mixed in equal amounts, and then placed in the dark and protected from light for 12 h. The ABTS standard solution was diluted with ethanol until the absorbance value at 734 nm was in the range of 0.7 ± 0.05. Then, 3900 µL of ABTS cation solution was mixed with 100 µL of test compound at different concentrations. The samples were kept in the dark for 10 min at room temperature and absorption was measured at 734 nm on a spectrophotometer. The percentage of ABTS radical-scavenging activity was calculated as follows: (Ac−Ai)/Ac × 100%, where Ai and Ac represented the change in absorbance in the presence and absence of the test sample, respectively.

[4] = Water solubility, shake-flask method; assay type: physicochemical; conditions: thermodynamic from solid, double distilled water, 37 °C
Protocol: Water solubility is regarded as another vital descriptor for BBB penetration, where high solubility is considered as a prerequisite for a rapid absorption and higher bioavailability of a drug candidate. […] With this experiment, we have obtained their data as 0.62, 3.03, 12.9, and […] for the selected compounds 11a, 11g, 12a, and 12c, respectively.
Solubility was determined by using the shake-flask method.The desired amount of the compound was placed in a test tube, to which an appropriate amount of double distilled water was introduced. The suspension was agitated on a plate shaker at 37 °C for 24 h. After centrifuging, HPLC analyses of supernatant was performed. The solubility of the compound was obtained from its HPLC result.

[5] = Lipophilicity (LogP) determination, shake-flask octanol/water; assay type: physicochemical; conditions: HPLC, read-out: LogP (experimental)
From the text: For anti-Alzheimer drug candidates, the ability to cross the blood–brain barrier (BBB) and to enter the central nervous system (CNS) is crucial to achieve their pharmacological target binding and activity, and CNS drugs require more strict rules for a successful penetration. […] Besides, for molecules to penetrate the BBB, a topological polar surface area (TPSA) value less than 90 Å ^2 is usually needed and molecules with a TPSA of greater than 120 Å ^2 tend to be poor in permeating cell membranes. Therefore, the molar mass (MW), LogP, and TPSA of all target compounds were simulated by ChemDraw 19.0 (Table 1). […] Because LogP was thought as an important physicochemical parameter to evaluate the ability to cross BBB, the LogP of some compounds was further assessed in experiments.
The lipophilicities of test compounds were determined using the traditional shake-flask method. A solid test compound (2 mg) was placed into a 10 mL pear-shaped flask, and measured volumes of octanol and water were added for logP determination. The resulting biphasic mixture was stirred for 24 h and then left without stirring for 12 h to allow phase separation. The test compound in each phase was sampled and quantitated using HPLC. The areas under the peaks were divided and the log taken.

T2 sequence (O42275 24-633): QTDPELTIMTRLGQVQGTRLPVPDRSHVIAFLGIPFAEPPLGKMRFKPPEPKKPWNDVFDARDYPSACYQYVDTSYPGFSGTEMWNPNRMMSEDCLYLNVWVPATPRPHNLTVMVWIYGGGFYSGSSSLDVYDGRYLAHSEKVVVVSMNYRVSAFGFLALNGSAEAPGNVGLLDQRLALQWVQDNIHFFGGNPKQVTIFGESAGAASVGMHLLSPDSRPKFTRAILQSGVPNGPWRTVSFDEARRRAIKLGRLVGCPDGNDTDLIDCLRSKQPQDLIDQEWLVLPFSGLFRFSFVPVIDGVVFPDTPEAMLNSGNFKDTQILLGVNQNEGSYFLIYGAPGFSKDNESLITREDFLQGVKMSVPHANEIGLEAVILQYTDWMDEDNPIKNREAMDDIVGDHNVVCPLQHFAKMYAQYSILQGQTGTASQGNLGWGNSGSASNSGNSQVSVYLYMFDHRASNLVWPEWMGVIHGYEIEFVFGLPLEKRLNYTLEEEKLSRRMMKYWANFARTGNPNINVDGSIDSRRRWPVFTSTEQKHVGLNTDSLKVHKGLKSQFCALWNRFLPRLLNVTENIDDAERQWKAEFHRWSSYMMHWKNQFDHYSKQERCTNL
T1 sequence (P81908 whole entry): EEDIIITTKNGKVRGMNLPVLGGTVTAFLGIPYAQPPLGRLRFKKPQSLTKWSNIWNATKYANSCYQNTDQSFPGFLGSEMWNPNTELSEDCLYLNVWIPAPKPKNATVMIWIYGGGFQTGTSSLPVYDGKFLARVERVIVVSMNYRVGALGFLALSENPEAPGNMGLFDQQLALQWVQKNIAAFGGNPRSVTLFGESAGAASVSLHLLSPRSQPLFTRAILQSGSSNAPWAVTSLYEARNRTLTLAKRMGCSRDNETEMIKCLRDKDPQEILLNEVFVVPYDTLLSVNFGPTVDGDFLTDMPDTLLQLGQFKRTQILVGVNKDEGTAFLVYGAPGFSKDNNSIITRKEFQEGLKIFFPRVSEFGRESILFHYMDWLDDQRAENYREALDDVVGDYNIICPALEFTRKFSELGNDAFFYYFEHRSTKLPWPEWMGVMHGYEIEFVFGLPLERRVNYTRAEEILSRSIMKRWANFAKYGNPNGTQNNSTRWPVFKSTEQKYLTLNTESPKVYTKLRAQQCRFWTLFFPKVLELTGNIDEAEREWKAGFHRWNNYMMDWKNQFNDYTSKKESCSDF

SMILES	IC50 [1] [µM]	SI for AChE = IC50 BChE/IC50 AChE [2]	IC50 [2] [µM]	ABTS radical-scavenging IC50 [3] [µg/mL]	IC50 [3] [µM]	solubility at 24 h [4] [mg/mL]	logP at 24 h [5]
COc1cc2c(Nc3ccccc3Cl)c([N+](=O)[O-])cnc2cc1OCCCN1CCOCC1 [11b, 6-Methoxy-7-(3-Morpholinopropoxy)-3-Nitro-4-(2-Chlorophenylamino)-Quinoline]	130 ± 4.62	10.42	12.5 ± 0.21				
COc1cc2c(Nc3cccc(Cl)c3)c([N+](=O)[O-])cnc2cc1OCCCN1CCOCC1 [11c, 6-Methoxy-7-(3-Morpholinopropoxy)-3-Nitro-4-(3-Chlorophenylamino)-Quinoline]	114 ± 5.36	3.55	32.4 ± 0.16				
COc1cc2c(Nc3ccc(Cl)cc3)c([N+](=O)[O-])cnc2cc1OCCCN1CCOCC1 [11d, 6-Methoxy-7-(3-Morpholinopropoxy)-3-Nitro-4-(4-Chlorophenylamino)-Quinoline]	82.4 ± 3.06	0.92	88.7 ± 1.1				
COc1cc2c(Nc3ccc(O)cc3)c([N+](=O)[O-])cnc2cc1OCCCN1CCOCC1 [11e, 6-Methoxy-7-(3-Morpholinopropoxy)-3-Nitro-4-(4-Hydroxylphenylamino)-Quinoline]	> 150	>4.35	34.47 ± 0.09	12.01 ± 1.49	26.4 ± 3.28		
COc1ccc(Nc2c([N+](=O)[O-])cnc3cc(OCCCN4CCOCC4)c(OC)cc23)cc1 [11f, 6-Methoxy-7-(3-Morpholinopropoxy)-3-Nitro-4-(4-Methoxyphenylamino)-Quinoline]	96.6 ± 4.75	7.54	12.8 ± 0.55	4.25 ± 0.63	9.07 ± 1.34		
COc1cc2c(Nc3ccccc3Cl)c([N+](=O)[O-])cnc2cc1OCCN1CCOCC1 [11h, 6-Methoxy-7-(2-Morpholinoethoxy)-3-Nitro-4-(2-Chlorophenylamino)-Quinoline]	81.1 ± 4.03	12.55	6.46 ± 0.77				
COc1cc2c(Nc3cccc(Cl)c3)c([N+](=O)[O-])cnc2cc1OCCN1CCOCC1 [11i, 6-Methoxy-7-(2-Morpholinoethoxy)-3-Nitro-4-(3-Chlorophenylamino)-Quinoline]	111 ± 5.59	11.08	10 ± 0.52				
COc1cc2c(Nc3ccc(Cl)cc3)c([N+](=O)[O-])cnc2cc1OCCN1CCOCC1 [11j, 6-Methoxy-7-(2-Morpholinoethoxy)-3-Nitro-4-(4-Chlorophenylamino)-Quinoline]	76.8 ± 3.76	8.90	8.63 ± 0.4				
COc1cc2c(Nc3ccc(O)cc3)c([N+](=O)[O-])cnc2cc1OCCN1CCOCC1 [11k, 6-Methoxy-7-(2-Morpholinoethoxy)-3-Nitro-4-(4-Hydroxylphenylamino)-Quinoline]	> 150	>8.11	18.5 ± 1.74	5.75 ± 1.37			
COc1ccc(Nc2c([N+](=O)[O-])cnc3cc(OCCN4CCOCC4)c(OC)cc23)cc1 [11l, 6-Methoxy-7-(2-Morpholinoethoxy)-3-Nitro-4-(4-Methoxyphenyamino)-Quinoline]	63.9 ± 2.87	7.03	9.08 ± 0.53	2.75 ± 0.53	6.05 ± 1.17		
COc1cc2c(Nc3ccccc3)c([N+](=O)[O-])cnc2cc1OCCCCN1CCOCC1 [11m, 6-Methoxy-7-(4-Morpholinobutoxy)-3-Nitro-4-Phenylamino-Quinoline]	> 150	>11.24	13.34 ± 0.07				
COc1cc2c(Nc3ccccc3Cl)c([N+](=O)[O-])cnc2cc1OCCCCN1CCOCC1 [11n, 6-Methoxy-7-(4-Morpholinobutoxy)-3-Nitro-4-(2-Chlorophenylamino)-Quinoline]	> 150	>1.75	85.57 ± 0.04				
COc1cc2c(Nc3cccc(Cl)c3)c([N+](=O)[O-])cnc2cc1OCCCCN1CCOCC1 [11o, 6-Methoxy-7-(4-Morpholinobutoxy)-3-Nitro-4-(3-Chlorophenylamino)-Quinoline]	116 ± 5.36	<0.77	> 150				
COc1cc2c(Nc3ccc(Cl)cc3)c([N+](=O)[O-])cnc2cc1OCCCCN1CCOCC1 [11p, 6-Methoxy-7-(4-Morpholinobutoxy)-3-Nitro-4-(4-Chlorophenylamino)-Quinoline]	98.1 ± 0.02	1.08	90.46 ± 0.06				
COc1cc2c(Nc3ccc(O)cc3)c([N+](=O)[O-])cnc2cc1OCCCCN1CCOCC1 [11q, 6-Methoxy-7-(4-Morpholinobutoxy)-3-Nitro-4-(4-Hydroxyphenylamino)-Quinoline]	> 150	>4.07	36.8 ± 0.45	26.12 ± 2.13	55.8 ± 4.55		
COc1ccc(Nc2c([N+](=O)[O-])cnc3cc(OCCCCN4CCOCC4)c(OC)cc23)cc1 [11r, 6-Methoxy-7-(4-Morpholinobutoxy)-3-Nitro-4-(4-Methoxyphenylamino)-Quinoline]	106 ± 1.16	5.65	18.9 ± 0.51	11.25 ± 1.27	23.3 ± 2.63		
COc1cc2c(Nc3ccccc3)c(N)cnc2cc1OCCCN1CCOCC1 [12a, 6-Methoxy-7-(3-Morpholinopropoxy)-3-Amino-4-Phenylamino-Quinoline]	30.5 ± 2.48	3.34	9.13 ± 0.42			12.9 (≈ 31.6 mM)	2.07
COc1cc2c(Nc3ccccc3Cl)c(N)cnc2cc1OCCCN1CCOCC1 [12b, 6-Methoxy-7-(3-Morpholinopropoxy)-3-Amino-4-(2-Chlorophenylamino)-Quinoline]	130 ± 3.76	3.01	43.3 ± 0.68				
COc1cc2c(Nc3cccc(Cl)c3)c(N)cnc2cc1OCCCN1CCOCC1 [12c, 6-Methoxy-7-(3-Morpholinopropoxy)-3-Amino-4-(3-Chlorophenylamino)-Quinoline]	27.8 ± 2.16	1.26	22.1 ± 0.33			10.5 (≈ 23.7 mM)	2.35
COc1cc2c(Nc3ccc(Cl)cc3)c(N)cnc2cc1OCCCN1CCOCC1 [12d, 6-Methoxy-7-(3-Morpholinopropoxy)-3-Amino-4-(4-Chlorophenylamino)-Quinoline]	145 ± 4.25	6.63	21.84 ± 0.2				
Cc1c(C)c2c(c(C)c1O)CCC(C)(C(=O)O)O2 (centres unmarked) [Trolox, reference compound]				2.76 ± 0.19	11 ± 0.76		
